Experimental data from publication PMC10933344, “A lncRNA Dleu2-encoded peptide relieves autoimmunity by facilitating Smad3-mediated Treg induction” (EMBO Reports, 2024).

Tested on: CD4+ T cells in spleen of EAE mice
Test: Flow cytometry of spleen T cells of treated EAE mice
Type: in vivo, mouse
Settings: 100 μg i.v.
Protocol: Figure 5 Dleu2-17aa attenuates EAE by promoting Treg cells. (A) Schematic diagram of MOG-induced EAE and treatment strategies with Dleu2-17aa, scrPEP, and Glatiramer. Mice received 100 μg of Dleu2-17aa or scrPEP every 3 days via i.v. injection or 150 μg of Glatiramer every day for seven times via s.c. on days 9 to 15. (B) Clinical scores were examined daily from day 9 using a scoring system ranging from 0 (no sign) to 5 (complete paralysis or dead). The x-axis represents experimental days, and the y-axis represents symptom severity (n = 8–9). (C) Representative Luxol fast blue (LFB) and hematoxylin and eosin staining (H&E) staining sections for treated EAE spinal cord. Scale bars: 100 μm. (D) Histopathology scores of inflammations and demyelination in treated EAE mice spinal cord using a scoring system ranging from 0 (no inflammatory cells or demyelination) to 4 (extensive inflammatory cells infiltration or confluent foci of demyelination) (n = 5–8). (E) Representative dot plots (left panel) and frequency (right panel) of CD44^hiCD62L^lo activated T cells, Foxp3^+ Treg cells, IL-17A^+ Th17 cells, and IFN-γ^+ Th1 cells gated on CD4^+ T cells in the spleen 14 days post immunization of MOG (n = 3). (F) Representative dot plots and frequency of CD4^+, Foxp3^+ Treg cells, and IFN-γ^+ Th1 cells gated on CD4^+ T cells in the CNS 14 days post immunization of MOG (n = 3). Data information: n indicates biological replicate. Error bars are mean ± SEM; *P < 0.05, **P < 0.01, and ***P < 0.001, n.s. indicates no significant difference. Statistical analysis was by two-way ANOVA for (B) and two-tailed Student’s t-test for (D–F). Source data are available online for this figure. TEXT PRINTED IN THE PICTURE: (E) scrPEP: Spleen: CD62L-PE-DF594 / CD44-PE: 78.2; Spleen: Foxp3-PE / CD4-APC: 7.38; Spleen: IFN-γ-Percp-cy5.5 / Il-17A-FITC: 4.67; Spleen: IFN-γ-Percp-cy5.5 / Il-17A-FITC: 0.18; Spleen: IFN-γ-Percp-cy5.5 / Il-17A-FITC: 94.7; Spleen: IFN-γ-Percp-cy5.5 / Il-17A-FITC: 0.44 | (E) Dleu2-17aa: Spleen: CD62L-PE-DF594 / CD44-PE: 37.2; Spleen: Foxp3-PE / CD4-APC: 12.9; Spleen: IFN-γ-Percp-cy5.5 / Il-17A-FITC: 2.83; Spleen: IFN-γ-Percp-cy5.5 / Il-17A-FITC: 0.26; Spleen: IFN-γ-Percp-cy5.5 / Il-17A-FITC: 96.1; Spleen: IFN-γ-Percp-cy5.5 / Il-17A-FITC: 0.79 | (F) scrPEP: CNS: FSC / CD4-APC: 9.03; CNS: Foxp3-PE / CD4-APC: 8.47; CNS: IFN-γ-Percp-cy5.5 / Il-17A-FITC: 22.9; CNS: IFN-γ-Percp-cy5.5 / Il-17A-FITC: 2.00; CNS: IFN-γ-Percp-cy5.5 / Il-17A-FITC: 69.7; CNS: IFN-γ-Percp-cy5.5 / Il-17A-FITC: 5.44 | (F) Dleu2-17aa: CNS: FSC / CD4-APC: 3.33; CNS: Foxp3-PE / CD4-APC: 15.5; CNS: IFN-γ-Percp-cy5.5 / Il-17A-FITC: 13.9; CNS: IFN-γ-Percp-cy5.5 / Il-17A-FITC: 2.65; CNS: IFN-γ-Percp-cy5.5 / Il-17A-FITC: 77.7; CNS: IFN-γ-Percp-cy5.5 / Il-17A-FITC: 5.79 DOUBTS OF THE COPYIST ABOUT THIS PICTURE: Panels E and F: the gate and quadrant numbers in the dot plots are printed with no measure or unit; the tissue heading and the axis labels of each plot are written in front of them. For the quadrant plots the order is upper left, upper right, lower left, lower right. / Panels E and F: the gate numbers are in small print, so 3, 5, 6, 8 and 9 are best readings: E scrPEP 78.2, 7.38, 4.67, 0.18, 94.7; E Dleu2-17aa 37.2, 12.9, 2.83, 0.26, 96.1, 0.79; F scrPEP 9.03, 8.47, 22.9, 69.7, 5.44; F Dleu2-17aa 3.33, 15.5, 13.9, 2.65, 5.79.
For active EAE immunization, myelin oligodendrocyte glycoprotein peptide (MOGp35–55, […], GenScript) was emulsified in complete Freund adjuvant (Sigma-Aldrich). An equivalent of 300 μg MOG peptide was injected per mouse subcutaneously followed by 200 ng of pertussis toxin (Merck-Calbiochem) injection intravenously on day 0 and day 2 of immunization. […]

Sequence: ARGPARRMRGGRRRRLR [scrPEP, scrambled control peptide of Dleu2-17aa]
- CD62LloCD44+/ CD4+ Cells(%) (replicate 1): 58.3%
- Foxp3+/ CD4+ Cells (%) (replicate 1): 7.65%
- IFN-γ+/ CD4+ Cells(%) (replicate 1): 4.58%
- CD62LloCD44+/ CD4+ Cells(%) (replicate 2): 60.9%
- Foxp3+/ CD4+ Cells (%) (replicate 2): 6.51%
- IFN-γ+/ CD4+ Cells(%) (replicate 2): 4.35%
- CD62LloCD44+/ CD4+ Cells(%) (replicate 3): 61.3%
- Foxp3+/ CD4+ Cells (%) (replicate 3): 6.5%
- IFN-γ+/ CD4+ Cells(%) (replicate 3): 4.11%
- CD62LloCD44+/ CD4+ Cells(%) (replicate 4): 78.2%
- Foxp3+/ CD4+ Cells (%) (replicate 4): 6.85%
- IFN-γ+/ CD4+ Cells(%) (replicate 4): 4.28%
